Earlier results on 1 compound are cited in patent US20150224078A1, “Methods for the Treatment of Lung Diseases with Mast Cell Stabilizers” (Patara Pharma, LLC, priority 2014, published 2015).

The conditions of this series: Richards et al, 1987.

As to `O=C(O)c1cc(=O)c2c(OCC(O)COc3cccc4oc(C(=O)O)cc(=O)c34)cccc2o1` [cromolyn sodium], the oral bioavailability entry was “about 1%”.
